# Several values for one entry are separate records, joined by “and”; a condition that tells them apart may be missing. Identical values can stand only once. Like-named read-outs stand apart in the source and are kept apart here.
# Columns and labels:
# PANC-1 and Fadu cells = test: CellTiter-Glo viability, statements covering both cancer cell lines; type: cell-based, human
# Protocol: The effects of the synthesized compounds on cell viability were measured using the CellTiter-Glo® luminescent cell viability assay (Promega, Madison, WI, USA), according to the manufacturer’s instructions. […] After seeding, cells were incubated for a further 48 h before treatment. Cells were treated with the compounds for 72 h. […] After treatment, the luminescence signal was recorded using a microplate reader (BioTek Synergy 2 Multi-Mode Reader, BioTek, Winooski, VT, USA).
# Fadu cells = test: CellTiter-Glo luminescent cell viability assay, Fadu; details: for Cell Viability (% of Control) 2.8 µM / Cell Viability (% of Control) 8.3 µM / Cell Viability (% of Control) 25 µM: Fadu
# PANC-1 cells = test: CellTiter-Glo luminescent cell viability assay, PANC-1; details: for Cell Viability (% of Control) 2.8 µM / Cell Viability (% of Control) 8.3 µM / Cell Viability (% of Control) 25 µM: PANC-1
# [1] = CellTiter-Glo luminescent cell viability assay, primary fibroblasts; details: human, primary skin fibroblasts (non-tumorous), Primer fibroblast Cell viability (% of controll), 72 h, dose–response, individual replicates
# Protocol: (§1) Primary fibroblast cultures were prepared from human skin biopsies and maintained in DMEM supplemented with 10% FBS, 1% penicillin-streptomycin, and 1% MEM Non-Essential Amino Acids Solution (Thermo Fisher Scientific). […] All cell lines were cultured in a humidified atmosphere at 37 °C and 5% CO2, passaged twice a week, and the experiments were performed on cells between passage 5 and 15. The cell lines were routinely screened for the absence of mycoplasma infection (DAPI staining).
# (§2) The effects of the synthesized compounds on cell viability were measured using the CellTiter-Glo® luminescent cell viability assay (Promega, Madison, WI, USA), according to the manufacturer’s instructions. Briefly, cells were seeded onto a flat-bottomed, white 96-well plate (BRANDplates, cat. no.: 781965)), with the following densities: PANC-1: 750 cells/well, Fadu: 2000 cells/well, primary fibroblasts: 2000 cells/well, HEK293T WT: 1000 cells/well, HEK293T CLPP^−/−: 2500 cells/well. After seeding, cells were incubated for a further 48 h before treatment. Cells were treated with the compounds for 72 h. Three concentrations (25.0 µM; 8.3 µM; 2.8 µM) were applied during the initial cell viability screening, while for the determination of dose–response curves, 1.5-fold serially diluted compound concentrations were applied (range: 26 µM–0.7 µM). After treatment, the luminescence signal was recorded using a microplate reader (BioTek Synergy 2 Multi-Mode Reader, BioTek, Winooski, VT, USA).
# (§3) Data analysis was performed using GraphPad Prism 9.5.0 software (GraphPad Software, San Diego, CA, USA). […] The dose–response curves were generated by four-parameter nonlinear regression, and the IC50 values were determined as the means ± SEM of the best-fit values of 3 independent measurements. The R^2 values were consistently above 0.93, indicating a strong fit of the model to the experimental data (Supplementary S.89). […] Dunnett’s post hoc test was applied to adjust for multiple comparisons, minimizing the likelihood of false positive results. Assumptions for ANOVA, including normality (assessed via QQ plots) and homogeneity of variance (tested using the Brown–Forsythe test), were verified. The following significance levels were applied: * p < 0.05, ** p < 0.01, *** p < 0.001, **** p < 0.0001. […] The tumor selectivity of the compounds was quantitatively characterized by the selectivity index (SI). This parameter was calculated as the ratio of the average best-fit IC50 value for primary fibroblasts and the best-fit IC50 value for the corresponding tumor cells (PANC-1 or Fadu).
# [2] = system: non-tumorous primary fibroblast cells; test: as above; details: for Primer fibroblast Cell viability (% of controll): dose–response, individual replicates; for IC50: Homo sapiens, Fibroblast
# Protocol: as §1, §2, §3
# [3] = 2.8 µM, 72 h, first-set screening, mean ± SD, n = 2
# [4] = 2.8 µM, 72 h, second-set screening, mean ± SD, n = 2
# [5] = 8.3 µM, 72 h, first-set screening, mean ± SD, n = 2
# [6] = 8.3 µM, 72 h, second-set screening, mean ± SD, n = 2
# [7] = 25 µM, 72 h, first-set screening, mean ± SD, n = 2
# [8] = 25 µM, 72 h, second-set screening, mean ± SD, n = 2
# [9] = 0.7 μM, 72 h, dose–response, individual replicates
# [10] = 1 μM, 72 h, dose–response, individual replicates
# [11] = 1.5 μM, 72 h, dose–response, individual replicates
# [12] = 2.3 μM, 72 h, dose–response, individual replicates
# [13] = 3.4 μM, 72 h, dose–response, individual replicates
# [14] = 5.1 μM, 72 h, dose–response, individual replicates
# [15] = 7.7 μM, 72 h, dose–response, individual replicates
# [16] = 17.3 μM, 72 h, dose–response, individual replicates
# [17] = 26 μM, 72 h, dose–response, individual replicates
structure (smiles),measurement,setting,value
NCC#Cc1ccc(CN2C(=O)C3=C(CCN(Cc4cccc(-n5cc(-c6ccccc6)nn5)c4)C3)N3CCN=C23)cc1 [3b],viability at 25 µM,"PANC-1 and Fadu cells; Homo sapiens, 25 µM, in either of the cancer cell lines, read-out: drop in viability at 25 µM",0 to 1%
same,viability at 2.8 µM,"Fadu cells; Homo sapiens, FaDu, 72 h, read-out: Cell Viability (% of Control) 2.8 µM, Fadu, 2.8 µM, 72 h, first-set screening, mean ± SD, n = 2",103 ± 2%
same,viability at 8.3 µM,"Fadu cells; Homo sapiens, FaDu, 72 h, read-out: Cell Viability (% of Control) 8.3 µM, Fadu, 8.3 µM, 72 h, first-set screening, mean ± SD, n = 2",95 ± 3%
same,viability at 25 µM,"Fadu cells; Homo sapiens, FaDu, 72 h, read-out: Cell Viability (% of Control) 25 µM, Fadu, 25 µM, 72 h, first-set screening, mean ± SD, n = 2",22 ± 4%
same,viability at 2.8 µM,"PANC-1 cells; Homo sapiens, PANC-1, 72 h, read-out: Cell Viability (% of Control) 2.8 µM, PANC-1, 2.8 µM, 72 h, first-set screening, mean ± SD, n = 2",103 ± 8%
same,viability at 8.3 µM,"PANC-1 cells; Homo sapiens, PANC-1, 72 h, read-out: Cell Viability (% of Control) 8.3 µM, PANC-1, 8.3 µM, 72 h, first-set screening, mean ± SD, n = 2",84 ± 2%
same,viability at 25 µM,"PANC-1 cells; Homo sapiens, PANC-1, 72 h, read-out: Cell Viability (% of Control) 25 µM, PANC-1, 25 µM, 72 h, first-set screening, mean ± SD, n = 2",0%
NCC#Cc1cccc(CN2C(=O)C3=C(CCN(Cc4ccc(-n5cc(-[c-]6cccc6)nn5)cc4)C3)N3CCN=C23)c1.[Fe+2].c1cc[cH-]c1 [2a],eradication of cancer cells at 8.3 µM,"PANC-1 and Fadu cells; 8.3 µM, both PANC-1 and Fadu, first-set screening",practically complete eradication of both types of cancer cells
same,Cell Viability (% of Control) 2.8 µM,Fadu cells; [3],107 ± 5 % of Control
same,Cell Viability (% of Control) 2.8 µM,Fadu cells; [4],114 ± 8 % of Control
same,Cell Viability (% of Control) 8.3 µM,Fadu cells; [5],3 ± 0 % of Control
same,Cell Viability (% of Control) 8.3 µM,Fadu cells; [6],56 ± 9 % of Control
same,Cell Viability (% of Control) 25 µM,Fadu cells; [7],0 ± 0 % of Control
same,Cell Viability (% of Control) 25 µM,Fadu cells; [8],0 ± 0 % of Control
same,Cell Viability (% of Control) 2.8 µM,PANC-1 cells; [3],92 ± 2 % of Control
same,Cell Viability (% of Control) 2.8 µM,PANC-1 cells; [4],117 ± 4 % of Control
same,Cell Viability (% of Control) 8.3 µM,PANC-1 cells; [5],0 ± 0 % of Control
same,Cell Viability (% of Control) 8.3 µM,PANC-1 cells; [6],92 ± 14 % of Control
same,Cell Viability (% of Control) 25 µM,PANC-1 cells; [7],0 ± 0 % of Control
same,Cell Viability (% of Control) 25 µM,PANC-1 cells; [8],0 ± 0 % of Control
CNCC#Cc1cccc(CN2C(=O)C3=C(CCN(Cc4ccc(-n5cc(-c6cccc(F)c6)nn5)cc4)C3)N3CCN=C23)c1 [43a],Fadu Cell viability (% of controll),Fadu cells; [9],109 % of controll
same,Fadu Cell viability (% of controll),Fadu cells; [10],109 % of controll
same,Fadu Cell viability (% of controll),Fadu cells; [11],104 % of controll and 103 % of controll
same,Fadu Cell viability (% of controll),Fadu cells; [12],80 % of controll and 88 % of controll
same,Fadu Cell viability (% of controll),Fadu cells; [13],71 % of controll and 29 % of controll and 38 % of controll
same,Fadu Cell viability (% of controll),Fadu cells; [14],5 % of controll and 0 % of controll
same,Fadu Cell viability (% of controll),Fadu cells; [15],0 % of controll
same,Fadu Cell viability (% of controll),Fadu cells; [16],0 % of controll
same,Fadu Cell viability (% of controll),Fadu cells; [17],0 % of controll
same,viability at 0.7 µM,"Fadu cells; Homo sapiens, FaDu, 72 h, read-out: Fadu Cell viability (% of controll), 0.7 μM, 72 h, dose–response, individual replicates",108%
same,viability at 1 µM,"Fadu cells; Homo sapiens, FaDu, 72 h, read-out: Fadu Cell viability (% of controll), 1 μM, 72 h, dose–response, individual replicates",112%
same,viability at 1.5 µM,"Fadu cells; Homo sapiens, FaDu, 72 h, read-out: Fadu Cell viability (% of controll), 1.5 μM, 72 h, dose–response, individual replicates",103%
same,viability at 2.3 µM,"Fadu cells; Homo sapiens, FaDu, 72 h, read-out: Fadu Cell viability (% of controll), 2.3 μM, 72 h, dose–response, individual replicates",95%
same,viability at 7.7 µM,"Fadu cells; Homo sapiens, FaDu, 72 h, read-out: Fadu Cell viability (% of controll), 7.7 μM, 72 h, dose–response, individual replicates",0%
same,viability at 17.3 µM,"Fadu cells; Homo sapiens, FaDu, 72 h, read-out: Fadu Cell viability (% of controll), 17.3 μM, 72 h, dose–response, individual replicates",0%
same,viability at 26 µM,"Fadu cells; Homo sapiens, FaDu, 72 h, read-out: Fadu Cell viability (% of controll), 26 μM, 72 h, dose–response, individual replicates",0%
same,IC50,"Fadu cells; Homo sapiens, FaDu, 72 h, read-out: IC50 Value ± SEM Fadu, 72 h treatment, best-fit values, n = 3",3.2 ± 0.1 µM
same,IC50,"Fadu cells; Homo sapiens, FaDu, read-out: Fadu IC50 values, Mean, mean of independently fitted replicate IC50 values (Supplement S.6)",3.18 µM
same,Selectivity Index (SI) Fibroblast/Fadu,Fadu cells; ratio of mean best-fit IC50 for primary fibroblasts and best-fit IC50 for Fadu,1.0
same,PANC-1 Cell viability (% of controll),PANC-1 cells; [9],108 % of controll and 111 % of controll
same,PANC-1 Cell viability (% of controll),PANC-1 cells; [10],112 % of controll and 115 % of controll
same,PANC-1 Cell viability (% of controll),PANC-1 cells; [11],102 % of controll and 112 % of controll
same,PANC-1 Cell viability (% of controll),PANC-1 cells; [12],93 % of controll and 84 % of controll and 107 % of controll
same,PANC-1 Cell viability (% of controll),PANC-1 cells; [13],0 % of controll
same,PANC-1 Cell viability (% of controll),PANC-1 cells; [14],0 % of controll
same,PANC-1 Cell viability (% of controll),PANC-1 cells; [15],0 % of controll
same,PANC-1 Cell viability (% of controll),PANC-1 cells; [16],0 % of controll
same,PANC-1 Cell viability (% of controll),PANC-1 cells; [17],0 % of controll
same,IC50,"PANC-1 cells; Homo sapiens, PANC-1, 72 h, read-out: IC50 Value ± SEM PANC-1, 72 h treatment, best-fit values, n = 3",2.5 ± 0.94 µM
same,viability at 0.7 µM,"PANC-1 cells; Homo sapiens, PANC-1, 72 h, read-out: PANC-1 Cell viability (% of controll), 0.7 μM, 72 h, dose–response, individual replicates",114%
same,viability at 1 µM,"PANC-1 cells; Homo sapiens, PANC-1, 72 h, read-out: PANC-1 Cell viability (% of controll), 1 μM, 72 h, dose–response, individual replicates",110%
same,viability at 1.5 µM,"PANC-1 cells; Homo sapiens, PANC-1, 72 h, read-out: PANC-1 Cell viability (% of controll), 1.5 μM, 72 h, dose–response, individual replicates",102%
same,viability at 3.4 µM,"PANC-1 cells; Homo sapiens, PANC-1, 72 h, read-out: PANC-1 Cell viability (% of controll), 3.4 μM, 72 h, dose–response, individual replicates",0%
same,viability at 5.1 µM,"PANC-1 cells; Homo sapiens, PANC-1, 72 h, read-out: PANC-1 Cell viability (% of controll), 5.1 μM, 72 h, dose–response, individual replicates",0%
same,viability at 7.7 µM,"PANC-1 cells; Homo sapiens, PANC-1, 72 h, read-out: PANC-1 Cell viability (% of controll), 7.7 μM, 72 h, dose–response, individual replicates",0%
same,viability at 17.3 µM,"PANC-1 cells; Homo sapiens, PANC-1, 72 h, read-out: PANC-1 Cell viability (% of controll), 17.3 μM, 72 h, dose–response, individual replicates",0%
same,viability at 26 µM,"PANC-1 cells; Homo sapiens, PANC-1, 72 h, read-out: PANC-1 Cell viability (% of controll), 26 μM, 72 h, dose–response, individual replicates",0%
same,IC50,"PANC-1 cells; Homo sapiens, PANC-1, read-out: PANC-1 IC50 values, Mean, mean of independently fitted replicate IC50 values (Supplement S.6)",2.48 µM
same,Selectivity Index (SI) Fibroblast/PANC-1,PANC-1 cells; ratio of mean best-fit IC50 for primary fibroblasts and best-fit IC50 for PANC-1,1.3
same,"viability at 72 h, 0.7 µM",[1]; 0.7 μM,99%
same,"viability at 72 h, 1 µM",[1]; 1 μM,109%
same,"viability at 72 h, 2.3 µM",[1]; 2.3 μM,111%
same,"viability at 72 h, 3.4 µM",[1]; 3.4 μM,35%
same,"viability at 72 h, 5.1 µM",[1]; 5.1 μM,0%
same,"viability at 72 h, 7.7 µM",[1]; 7.7 μM,0%
same,"viability at 72 h, 17.3 µM",[1]; 17.3 μM,0%
same,"viability at 72 h, 26 µM",[1]; 26 μM,0%
same,Primer fibroblast Cell viability (% of controll),"[2]; 0.7 μM, 72 h",107 % of controll
same,Primer fibroblast Cell viability (% of controll),"[2]; 1 μM, 72 h",108 % of controll and 106 % of controll
same,Primer fibroblast Cell viability (% of controll),"[2]; 1.5 μM, 72 h",114 % of controll and 125 % of controll and 99 % of controll
same,Primer fibroblast Cell viability (% of controll),"[2]; 2.3 μM, 72 h",101 % of controll and 104 % of controll
same,Primer fibroblast Cell viability (% of controll),"[2]; 3.4 μM, 72 h",34 % of controll and 29 % of controll
same,Primer fibroblast Cell viability (% of controll),"[2]; 5.1 μM, 72 h",0 % of controll
same,Primer fibroblast Cell viability (% of controll),"[2]; 7.7 μM, 72 h",0 % of controll
same,Primer fibroblast Cell viability (% of controll),"[2]; 17.3 μM, 72 h",0 % of controll
same,Primer fibroblast Cell viability (% of controll),"[2]; 26 μM, 72 h",0 % of controll
same,IC50,"[2]; 72 h, read-out: IC50 Value ± SEM Primary Fibroblast, 72 h treatment, best-fit values, n = 3",3.2 ± 0.07 µM
same,IC50,"[2]; read-out: Primary fibroblast IC50 values, Mean, mean of independently fitted replicate IC50 values (Supplement S.6), ONC201 value mathematically estimated from inflection point",3.23 µM

# Source: publication PMC11642016 (International Journal of Molecular Sciences, 2024)
